Data published in patent US20220089540A1 (Board of Trustees of Michigan State University, priority 2019, published 2022).

Columns and labels:
[1] = system: inducible nitric oxide synthase (iNOS); test: iNOS suppression / NO assay in LPS-stimulated macrophages or RAW264.7 cells (Griess reaction); format: cell-based, mouse; settings: at 100 nM; comparators of Table 3
Outline: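 RAW264.7 cells or macrophages incubated with rexinoids (300 nM, or 100 nM/300 nM, or a concentration series) and stimulated with 1–2 ng/ml LPS for 24 h. Nitric oxide released into medium measured by Griess reaction; values given as percent of LPS-stimulated control, % inhibition, or IC50.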

lung tumors of A/J mice = test: Vinyl carbamate-induced (Kras) lung cancer in A/J mice; format: in vivo, mouse
Method: To evaluate the effects of LG268, with and without other chemotherapeutic agents, female A/J mice were injected with a weekly dose of vinyl carbamate for twelve weeks to induce lung tumors of between 0.5 and 1 mm in diameter. A/J mice were randomized and treated with either control diet or rexinoids fed in the diet (100 mg/kg diet). One week after the treatment diets started, mice were injected with 6 cycles of carboplatin (50 mg/kg i.p.), paclitaxel (15 mg/kg i.p.), or a combination thereof, given every other week. At the end of the studies, lungs were harvested en bloc and inflated with buffered formalin (NBF); liver and plasma were collected to determine drug levels and lipid concentrations. Step sectioning (200 μm between sections) of the left lung started at the medial hilar surface, and sections were stained with hematoxylin and eosin. The number, size, and histopathology of randomized, coded tumors were assessed on two separate sections of each lung by two independent investigators. Classification of the tumors as low, medium, or high grade was based on previously published histologic and nuclear criteria. The efficacy of other rexinoids (e.g., MSU 42011) for treatment of lung cancer, alone and in combination with standard of care chemotherapy (carboplatin and paclitaxel), is currently being evaluated in this preclinical model.

PD-L1 = PD-L1 induction in macrophages or RAW264.7 cells with cancer cell conditioned media (flow cytometry); format: cell-based, mouse; settings: for PD-L1 Levels: Table 4, Control 43.3
E18-14C-27C cancer cells = test: PD-1 and PD-L1 expression in E18-14C-27C cancer cells; format: cell-based, mouse; settings: 72 hours
Method: RAW 264.7 mouse macrophage-like (ATCC) and E18-14C-27 (Wu et al., Cancer Res. 62, 6376-6380 (2002)) cells were cultured in DMEM supplemented with 10% fetal bovine serum (FBS). RAW 264.7 cells were cultured at 50000/well in a 6 well plate for 24 hours to determine PD-L1 levels. E18-14C-27 cells were cultured for 72 hours in the presence of LG268 for protein levels. Conditioned media was collected from E18-14C-27 at 60-70% confluence for 24 hours; media was then collected and centrifuged at 900 rpm for 5 minutes to eliminate any cell debris.
To determine if these changes occurred in the tumor cells or in the macrophages, E18-14C-27C and RAW 264.7 cell lines were treated with LG268. […] Similar observations were made in human THP-1 monocytic cells stimulated with conditioned media from human HER2 positive SK-BR-3 breast cancer cells and treated with LG268 or bexarotene for 24 hours (FIG. 5E-5F).

## Cc1cc2c(cc1C1(c3ccc(C(=O)O)cn3)CC1)C(C)(C)CCC2(C)C [LG268]
[1]
  iNOS: 15-30% at 100 nM
Lung tumors of A/J mice; LG268 100 mg/kg diet 12 weeks, C 50 mg/kg i.p., P 15 mg/kg i.p., 6 injections, control 3.4±0.25
  average number of lung tumors: 2.2±0.28
Lung tumors of A/J mice; control 0.58±0.09 mm^3
  average tumor size: 0.24±0.03 mm^3
Lung tumors of A/J mice; control 1.99±0.34 mm^3
  average tumor burden: 0.52±0.12 mm^3
Lung tumors of A/J mice; control 71%
  percentage of high grade tumors: 52%
Lung tumors of A/J mice; mouse, in vivo
  decrease of average tumor size vs controls: 59%
  diminution of average tumor burden vs control: 74%
PD-L1; 100 nM
  PD-L1 Levels: 66.7
PD-L1; 1000 nM
  PD-L1 Levels: 77
PD-L1; 24 hours
  PD-L1 levels in RAW 264.7 cells with E18-14C-27C conditioned media: increased levels
E18-14C-27C cancer cells; flow cytometry
  PD-L1 expression: did not change
E18-14C-27C cancer cells; western blot
  PD-1 expression: decreased
